From PMC11459966, “Oral pharmacokinetics and efficacy of oral phospholipid remdesivir nucleoside prodrugs against SARS-CoV-2 in mice” (Antimicrobial Agents and Chemotherapy, 2024)
Where two headings read alike, the source gives them in different places.

Columns and labels:
[1] = tested on: SARS-CoV-2 isolate USA-WA1/2020; experiment: microbe, parasite or virus in culture
[2] = tested on: SARS-CoV-2 isolate USA-WA1/2020; experiment: microbe, parasite or virus in culture; remark: listed apart in the source
[3] = Cell viability assay (CellTiter-Glo), Vero-TMPRSS2; assay type: cell-based, African green monkey; conditions: African green monkey, Vero-TMPRSS2 cells, 48 h incubation
Description: Cell viability assays (Table 1) were performed as previously described ([7]). Cells were cultured and seeded as per in vitro antiviral studies in opaque walled 96-well cell culture plates and incubated overnight for Huh7.5, A2T2-A549, and Vero-E6-TMPRSS2 cells and for 2 days for Calu-3 cells. Compounds or controls were added at the indicated concentrations in a total volume of 100 µL, and cells were incubated for 48 h. An equal volume of CellTiter-Glo reagent (Promega, Cat. #G7570) or CellTiter-Glo 2.0 reagent (Promega, Cat. #G9241) was added and mixed, and luminescence was recorded on a Veritas Microplate Luminometer (Turner BioSystems) or a Spark Multimode plate reader (Tecan) according to manufacturer instructions. Percent viability was normalized to DMSO controls, and CC50 values were derived from best fit curves calculated in Prism 10.

[4] = tested on: SARS-CoV-2 isolate USA-WA1/2020; experiment: microbe, parasite or virus in culture; assay type: cell-based; conditions: Severe acute respiratory syndrome coronavirus 2; Calu-3 cells, 44–48 hpi
[5] = tested on: SARS-CoV-2 isolate USA-WA1/2020; experiment: microbe, parasite or virus in culture; remark: listed apart in the source
[6] = Cell viability assay (CellTiter-Glo), Calu-3; conditions: human, Calu-3 cells
[7] = Cell viability assay (CellTiter-Glo), A2T2-A549; conditions: human, A2T2-A549 cells
[8] = tested on: SARS-CoV-2 isolate USA-WA1/2020; conditions: A2T2-A549
[9] = Cell viability assay (CellTiter-Glo), Huh7.5; conditions: human, Huh7.5 cells
[10] = tested on: SARS-CoV-2 isolate USA-WA1/2020; conditions: Vero-TMPRSS2

With `N#C[C@@]1(c2ccc3c(N)ncnn23)O[C@H](CO)[C@@H](O)[C@H]1O` [RVn, reference compound] the EC50 ([1]; Severe acute respiratory syndrome coronavirus 2, read-out: EC50 μM ± SD) was 3.01 ± 0.038 µM, the EC90 ([1]; Severe acute respiratory syndrome coronavirus 2, read-out: EC90 μM ± SD) was 4.49 ± 0.256 µM and the EC50 ([2]; Severe acute respiratory syndrome coronavirus 2, Huh7.5, read-out: EC50 μM ± SD) was 1.36 ± 0.544 µM. The EC90 ([2]; Severe acute respiratory syndrome coronavirus 2, Huh7.5, read-out: EC90 μM ± SD) was 2.96 ± 0.866 µM, the CC50 at 48 h [3] was greater than 100 µM and the EC50 [4] was 0.665 ± 0.284 µM. It also gave an EC90 [4] of 1.89 ± 0.497 µM, an EC50 ([5]; Severe acute respiratory syndrome coronavirus 2, Vero/TMPRSS2, read-out: EC50 μM ± SD) of 1.08 ± 0.264 µM and an EC90 ([5]; Severe acute respiratory syndrome coronavirus 2, Vero/TMPRSS2, read-out: EC90 μM ± SD) of 2.43 ± 0.692 µM. For the same compound, the CC50 at 48 h [6] was greater than 100 µM, the CC50 at 48 h [7] was greater than 100 µM and the “SI (CC50/EC50)” value [8] was greater than 33. The CC50 at 48 h [9] was greater than 100 µM and the “SI (CC50/EC50)” value [10] was greater than 92.
